Conditions: 293.15 K, Liquid, Vibrating tube method

CCCCCCCCCC [decane]
Conditions	mass density [kg/m3]
6746 kPa	735.1
6773 kPa	735
6794 kPa	734.9
6816 kPa	735
6848 kPa	735
6876 kPa	735
6897 kPa	735
6922 kPa	735.2
6945 kPa	735.2
6978 kPa	735.2
7001 kPa	735
7028 kPa	735.2
7050 kPa	735.3
7069 kPa	735.2
7097 kPa	735.2
7122 kPa	735.3
7137 kPa	735.2
7168 kPa	735.4
7187 kPa	735.3
7209 kPa	735.3
7232 kPa	735.3
7257 kPa	735.4
7276 kPa	735.4
7295 kPa	735.4
7318 kPa	735.4
7338 kPa	735.4
7360 kPa	735.4
7390 kPa	735.4
7414 kPa	735.5
7438 kPa	735.6
7460 kPa	735.5
7485 kPa	735.6
7500 kPa	735.6
7514 kPa	735.6
7532 kPa	735.5
7544 kPa	735.6
7559 kPa	735.5
7573 kPa	735.6
7586 kPa	735.6
7603 kPa	735.6
7621 kPa	735.7
7636 kPa	735.6
7649 kPa	735.6
7665 kPa	735.7
7685 kPa	735.6
7701 kPa	735.6
7716 kPa	735.6
7732 kPa	735.7
7748 kPa	735.7
7769 kPa	735.7
7789 kPa	735.7
7803 kPa	735.8
7824 kPa	735.8
7837 kPa	735.8
7854 kPa	735.8
7873 kPa	735.8
7889 kPa	735.8
7910 kPa	735.9
7929 kPa	735.9
7943 kPa	735.9
7963 kPa	735.9
7982 kPa	735.8
7997 kPa	736
8013 kPa	736.1
8030 kPa	735.9
8048 kPa	736
8065 kPa	736
8080 kPa	736
8102 kPa	735.9
8114 kPa	735.9
8137 kPa	736.1
8160 kPa	736
8178 kPa	736.1
8196 kPa	736
8213 kPa	736.1
8234 kPa	736.1
8249 kPa	736.1
8265 kPa	736.1
8289 kPa	736.2
8309 kPa	736.1
8324 kPa	736.2
8342 kPa	736.2
8357 kPa	736.1
8373 kPa	736.2
8396 kPa	736.2
8414 kPa	736.2
8435 kPa	736.2
8456 kPa	736.2
8469 kPa	736.3
8490 kPa	736.2
8512 kPa	736.2
8530 kPa	736.2
8552 kPa	736.3
8577 kPa	736.3
8591 kPa	736.3
8615 kPa	736.4
8638 kPa	736.4
8657 kPa	736.4
8679 kPa	736.3
8696 kPa	736.4
8715 kPa	736.5
8735 kPa	736.4
8752 kPa	736.4
8777 kPa	736.5
8801 kPa	736.5
8818 kPa	736.6
8844 kPa	736.5
8867 kPa	736.5
8885 kPa	736.5
8905 kPa	736.6
8925 kPa	736.5
8946 kPa	736.6
8967 kPa	736.5
8985 kPa	736.6
9006 kPa	736.6
9033 kPa	736.6
9054 kPa	736.6
9077 kPa	736.8
9098 kPa	736.6
9119 kPa	736.7
9137 kPa	736.8
9159 kPa	736.8
9178 kPa	736.8
9206 kPa	736.8
9235 kPa	736.7
9251 kPa	736.8
9280 kPa	736.9
9302 kPa	736.8
9324 kPa	737
9350 kPa	736.9
9370 kPa	736.9
9397 kPa	737
9426 kPa	736.9
9446 kPa	736.9
9469 kPa	736.9
9492 kPa	736.9
9512 kPa	737
